From patent US20220347141A1, “METHODS OF TREATING PHOSPHATE CONCENTRATION DISORDERS WITH L-BAIBA” (YALE UNIVERSITY, priority 2019, published 2022)
“Also recorded” adds a separate entry of the source.

Legend:
WT mice = experiment: L-BAIBA or D-BAIBA in the drinking water of WT mice: urine Pi excretion, plasma Pi, plasma intact FGF23; type: in vivo, mouse
Procedure: FIG. 5A: 5 mo. old males treated with CO, L-BAIBA, or D-BAIBA in the drinking water for 5 days. FIGS. 5B-5D: same 5 mo. old males from FIG. 5A treated for 30 days, following sacrifice in addition to urine Pi/urine creatinine, plasma Pi and plasma intact FGF23 were determined. Data are mean±SEM, ****p<0.00002, ***p=0.0002, **p=0.002, *p=0.03 vs. CO.
Mouse lines are back-crossed to C57BL6 mice (Charles river laboratories strain ID 027) to reduce variation caused by genetic background and fed a standard chow containing 0.3% bio-available Pi (Teklad 2018S) or for selective experiments a high Pi (HPD diet, 1.2% bio-available Pi, Teklad TD85349). L-BAIBA can be supplied in the drinking water (see Chemical Reagents below). PCR-based genotyping can be done on each experimental animal using gDNA prepared by alkaline lysis from a tail- or ear-snip to verify presence of the Pit1 null, Pit2 null, HA-hPIT1^tg/+ and HSA-Cre^tg/+ alleles.
All blood and urine studies for calcium, creatinine, phosphorus, iPTH, and c/iFGF23 can be performed using commercially available Stanbio kits, Immutopics and R&D ELISAs, or LC-MS/MS-based methods. […] Results can be analyzed using a Perkin Elmer 1420 Multilabel Counter Victor 3 currently located at the Anlyan Center, S-120 or using an Applied Biosystems API6500 QTrap interfaced to a Shimadzu HPLC (LC-20AD, SIL-20AC, CTO-20A) currently located in Anlyan Center, S-260. […]

MRGPRD = biological target: T1, MRGPRD (Mus musculus, UniProt Q91ZB8); conditions: young mice, cited from earlier work
T1 construct: young osteocytes which express high levels of MRGPRD; endogenous in cells; host or cells: osteocytes of young mice (in vivo, hind-limb suspension)
T1 sequence (Q91ZB8 1-321): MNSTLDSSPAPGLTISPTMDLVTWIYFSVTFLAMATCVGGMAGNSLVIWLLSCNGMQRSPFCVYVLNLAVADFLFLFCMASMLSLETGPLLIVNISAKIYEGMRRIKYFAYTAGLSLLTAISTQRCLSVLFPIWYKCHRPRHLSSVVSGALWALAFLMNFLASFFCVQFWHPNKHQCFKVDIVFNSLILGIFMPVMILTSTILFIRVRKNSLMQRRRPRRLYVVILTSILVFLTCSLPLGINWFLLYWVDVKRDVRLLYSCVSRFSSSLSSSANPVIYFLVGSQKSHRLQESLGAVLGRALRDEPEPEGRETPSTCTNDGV

FGF23 synthesis in bone = experiment: Stimulation of FGF23 synthesis in bone; type: in vivo; conditions: resulting in unsuppressed FGF23 levels
FGF23 = biological target: T2, FGF23 (Homo sapiens, UniProt Q9GZV9); conditions: individuals with XLH treated with burosumab; cited from earlier work
T2 construct: individuals treated with burosumab (Crysvita), an FGF23-neutralizing antibody therapy for XLH; endogenous in cells; host or cells: patients with XLH (in vivo, circulating hormone)
T2 sequence (Q9GZV9 25-251): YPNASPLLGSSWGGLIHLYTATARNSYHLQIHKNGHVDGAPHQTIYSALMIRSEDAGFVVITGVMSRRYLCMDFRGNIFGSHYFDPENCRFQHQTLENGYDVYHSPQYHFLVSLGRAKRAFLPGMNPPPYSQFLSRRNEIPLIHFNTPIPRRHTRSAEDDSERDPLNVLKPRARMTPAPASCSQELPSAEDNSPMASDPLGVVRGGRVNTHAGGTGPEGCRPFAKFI

## C[C@@H](CN)C(=O)O [L-BAIBA, (S)-3-amino-2-methylpropanoic acid]
WT mice; 5 mo. old male WT mice, in the drinking water for 5 or 30 days, vs. CO
  urine Pi excretion (urine Pi/urine creatinine): increased renal Pi-excretion; also recorded: increases urine Pi excretion; also recorded: caused a renal Pi leak
WT mice; 5 month old WT mice treated with L-BAIBA
  FGF23 levels (plasma intact FGF23): inappropriately normal
MRGPRD; activation of MRGPRD, maintaining mitochondrial integrity
  osteocyte survival: promotes osteocyte survival
MRGPRD
  bone loss caused by hind-limb suspension: prevents bone loss
FGF23 synthesis in bone
  FGF23 synthesis in bone: able to stimulate FGF23 synthesis in bone

## burosumab: an FGF23-neutralizing antibody therapy for XLH
FGF23
  fatigue and endurance reported by treated individuals: improved fatigue and endurance
